One block for each compound: values may come before it.
What was measured:
[1] = biological target: T1, Tyrosine-protein kinase SYK (Homo sapiens, UniProt P43405); test: Inhibition of Syk (unknown origin) preincubated for 20 mins followed by 33P-gamma-ATP measured after 120 mins by HotSpot assay
[2] = tested on: Ramos; test: Inhibition of […] in serum-starved human Ramos cells incubated for 1 hr followed by anti-human IgM F(ab)2 measured after 5 mins; type: functional, cell-based
[3] = tested on: MV4-11; test: Inhibition of cell viability in human MV4-11 cells incubated for 72 hrs by Cell Titer Glo assay; type: functional, cell-based; conditions: MV4-11, 72 h
[4] = Metabolic stability in human liver microsomes assessed as intrinsic clearance at […] incubated for 60 mins in presence of NADPH by LC-MS/MS analysis; type: ADME, Microsome; conditions: read-out: CLH
[5] = Metabolic stability in human liver microsomes assessed as half life at […] incubated for 60 mins in presence of NADPH by LC-MS/MS analysis; type: ADME, Microsome
[6] = biological target: T1, Tyrosine-protein kinase SYK; test: Inhibition of Syk (unknown origin) assessed as enzyme activity at 2 uM preincubated for 20 mins followed by 33P-gamma-ATP measured after 120 mins by HotSpot assay relative to control; parameters: scale not given: the % may be the effect or the level left; conditions: time 140.0 min

IC50 [1]: 0.0049 µM | IC50 [2]: 0.0415 µM | IC50 [3]: 0.0108 µM | microsomal CLint [4]: 79.9 µL/min/mg | half-life [5]: 17.3 min
Structure (SMILES): COc1ccc2[nH]c(-c3n[nH]cc3Nc3ncnc4[nH]ccc34)nc2c1

IC50 [1]: 0.163 µM
Structure (SMILES): Nc1nccc(Nc2c[nH]nc2-c2nc3ccccc3s2)n1

IC50 [1]: 0.321 µM
Structure (SMILES): COC(=O)c1cc(Nc2c[nH]nc2-c2nc3ccccc3[nH]2)nc(Cl)n1

IC50 [1]: 0.0601 µM
Structure (SMILES): Nc1nccc(Nc2c[nH]nc2-c2nc3ccccc3[nH]2)n1

IC50 [1]: 0.0059 µM | IC50 [2]: 0.184 µM | IC50 [3]: 0.0664 µM
Structure (SMILES): c1nc(Nc2c[nH]nc2-c2nc3cc(N4CCCCC4)ccc3[nH]2)c2cc[nH]c2n1

IC50 [1]: 0.24 µM
Structure (SMILES): Clc1nccc(Nc2c[nH]nc2-c2nc3ccccc3[nH]2)n1

IC50 [1]: 0.0205 µM
Structure (SMILES): c1ccc2[nH]c(-c3n[nH]cc3Nc3ncnc4[nH]ccc34)nc2c1

IC50 [1]: 0.0214 µM
Structure (SMILES): Cc1cc2nc(-c3n[nH]cc3Nc3ncnc4c3ccn4C)[nH]c2cc1C

Activity [6]: 60.5%
Structure (SMILES): Cc1ccc(CNc2c[nH]nc2-c2nc3ccccc3[nH]2)o1

IC50 [1]: 0.0027 µM | IC50 [2]: 0.0614 µM | IC50 [3]: 0.0197 µM | microsomal CLint [4]: 30.8 µL/min/mg | half-life [5]: 44.9 min
Structure (SMILES): CN(C)c1ccc2[nH]c(-c3n[nH]cc3Nc3ncnc4[nH]ccc34)nc2c1

IC50 [1]: 0.0776 µM
Structure (SMILES): Cc1cc2nc(-c3n[nH]cc3Nc3ncnc4sccc34)[nH]c2cc1C

IC50 [1]: 0.0674 µM
Structure (SMILES): CC(C)(C)c1ccc2[nH]c(-c3n[nH]cc3Nc3ncnc4[nH]ccc34)nc2c1

Activity [6]: 52.6%
Structure (SMILES): Nc1cccc(CNc2c[nH]nc2-c2nc3ccccc3[nH]2)c1

IC50 [1]: 0.0145 µM | IC50 [2]: 0.0268 µM | IC50 [3]: 0.0825 µM | microsomal CLint [4]: 78.1 µL/min/mg | half-life [5]: 44.4 min
Structure (SMILES): c1cc(N2CCCC2)c2nc(-c3n[nH]cc3Nc3ncnc4[nH]ccc34)[nH]c2c1

IC50 [1]: 0.135 µM
Structure (SMILES): Nc1cc(Nc2c[nH]nc2-c2nc3ccccc3[nH]2)ncn1

Activity [6]: 18.5%
Structure (SMILES): c1ccc2[nH]c(-c3n[nH]cc3Nc3ncnc4c3CCC4)nc2c1

IC50 [1]: 1.22 µM
Structure (SMILES): Cc1nc(Cl)cc(Nc2c[nH]nc2-c2nc3ccccc3[nH]2)n1

Activity [6]: 92.3%
Structure (SMILES): Cn1c(-c2n[nH]cc2Nc2ccnc(N)n2)nc2ccccc21

IC50 [1]: 15.8 µM
Structure (SMILES): CCNc1c[nH]nc1-c1nc2ccccc2[nH]1

IC50 [1]: 0.687 µM
Structure (SMILES): c1ccc(Nc2nccc(Nc3c[nH]nc3-c3nc4ccccc4[nH]3)n2)cc1

Activity [6]: 36.3%
Structure (SMILES): c1ccc2[nH]c(-c3n[nH]cc3Nc3ccnc(NC4CCCC4)n3)nc2c1

IC50 [1]: 0.172 µM
Structure (SMILES): Clc1ccc2[nH]c(-c3n[nH]cc3Nc3ncnc4[nH]ccc34)nc2c1
